Test results published in the supplement of paper PMC7224384.

How the values were obtained:
[1] = test system: MDA-MB-453; experiment: drug sensitivity score (DSS), single agent (DSS (weighted AUC score)); higher = more sensitive (stronger viability decrease); extreme values may be limits of the assay; settings: BLU9931 0 nM; 72 h
Procedure, shortened: (§1)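 Cells of the MDA-MB-453 line (2000 per well) were added in medium, with or without 100 nM final FGFR4 inhibitor, to 384-well plates predispensed with FIMM Oncology set compounds at five 10-fold dilutions covering a 10,000-fold range. After 72 h at 37 °C, 5% CO2, CellTiterGlo 2.0 read cellular ATP. Percent viability came from per-plate normalisation to control wells, and the drug sensitivity score was defined as a weighted area under a four-parameter logistic fit.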

[2] = test system: MDA-MB-453; experiment: drug sensitivity score (DSS), in combination with BLU9931 (DSS (weighted AUC score)); higher = more sensitive (stronger viability decrease); extreme values may be limits of the assay; settings: BLU9931 100 nM; 72 h
Procedure, shortened: as §1

Row | Structure (SMILES) | drug sensitivity score [1] | drug sensitivity score [2]
1 | C=CC(=O)N1CCC(Oc2cc3c(Nc4ccc(Cl)c(Cl)c4F)ncnc3cc2OC)CC1 [Poziotinib] | 19.1 | 25.1
2 | NS(=O)(=O)OC[C@@H]1C[C@@H](n2ccc3c(N[C@H]4CCc5ccccc54)ncnc32)C[C@@H]1O [Pevonedistat] | 7 | 3.3
3 | CON(C)C(=O)N1N=C(c2cc(F)ccc2F)S[C@@]1(CCCN)c1ccccc1 [Filanesib] | 16.7 | 15.3
4 | CC(O)c1cc(C(=O)N[C@@H](C)Cn2ccc(-c3ccc(C#N)c(Cl)c3)n2)n[nH]1 (stereo not given in full) [ODM-201] | 1.1 | 0.3
5 | Cc1noc2c1-c1ccccc1C(c1ccc(Cl)cc1)=N[C@H]2CC(N)=O [CPI-0610] | 9.4 | 10
6 | C=CC(=O)Nc1cccc(Nc2nc(Nc3ccc(OCCOC)cc3)ncc2F)c1 [Spebrutinib] | 0.7 | 0.9
7 | CC(=O)O[C@@]12CO[C@@H]1C[C@H](O)[C@@]1(C)C(=O)[C@H](O)C3=C(C)[C@@H](OC(=O)[C@H](O)[C@@H](NC(=O)OC(C)(C)C)c4ccccc4)C[C@@](O)([C@@H](OC(=O)c4ccccc4)[C@H]21)C3(C)C [Docetaxel] | 18.3 | 14.1
8 | CN(C)C(=O)c1ccc(S(=O)(=O)c2ccc(NC(=O)[C@@](C)(O)C(F)(F)F)c(Cl)c2)cc1 [AZD7545] | 0.1 | 0.2
9 | CCN(CC)CCOc1ccc(C(=C(Cl)c2ccccc2)c2ccccc2)cc1 [Clomifene] | 5.8 | 4
10 | COCCOc1cnc2ccn([C@H](C)c3nnc4c(F)cc(-c5cnn(C)c5)cn34)c(=O)c2c1 [AMG-337] | 0 | 0
11 | COc1cc(CCc2cc(NC(=O)c3ccc(N4CC(C)NC(C)C4)cc3)n[nH]2)cc(OC)c1 (stereo not given) [AZD4547] | 0.3 | 0
12 | COc1ncc(-c2ccc3nccc(-c4ccnnc4)c3c2)cc1NS(=O)(=O)c1ccc(F)cc1F [Omipalisib] | 23 | 25.1
13 | Cc1ccc(C(=O)Nc2ccc(Oc3cc4cnn(C)c4cc3-c3cn[nH]c3)c(F)c2)c(=O)n1-c1ccc(F)cc1 [Merestinib] | 0 | 0
14 | O=C(Nc1ccc(OC(F)(F)Cl)cc1)c1cnc(N2CC[C@@H](O)C2)c(-c2cc[nH]n2)c1 [Asciminib] | 3.4 | 1.2
15 | Cc1cc(Nc2ncc(Cl)c(Nc3ccccc3S(=O)(=O)C(C)C)n2)c(OC(C)C)cc1C1CCNCC1 [Ceritinib] | 1.8 | 1.9
16 | O=C1CCC(N2C(=O)c3ccccc3C2=O)C(=O)N1 (stereo not given) [Thalidomide] | 0 | 1
17 | CC1(C)CC[C@]2(NC(=O)C(C)(F)F)CC[C@]3(C)[C@H](C(=O)C=C4[C@@]5(C)C=C(C#N)C(=O)C(C)(C)[C@@H]5CC[C@]43C)[C@@H]2C1 [Omaveloxolone] | 14.3 | 13.5
18 | CN1CCN(C(=O)c2ccc3cc(CCNc4ncnc5ccc(C#N)cc45)ccc3c2)CC1 [Senexin B] | 2.4 | 1.3
19 | CC[C@H](CC#N)OC(=O)N[C@@H](C)c1cccc(NC(=O)Nc2ccc(-c3cnco3)c(OC)c2)c1 [AVN944] | 7.1 | 3.2
20 | Cn1cnc2c(F)c(Nc3ccc(Br)cc3F)c(C(=O)NOCCO)cc21 [Binimetinib] | 0 | 0.2
21 | N.N.[Cl][Pt][Cl] [Cisplatin] | 6.5 | 6.5
22 | CO[C@@]12[C@H](COC(N)=O)C3=C(C(=O)C(C)=C(N)C3=O)N1C[C@@H]1N[C@@H]12 [Mitomycin C] | 0 | 0
23 | CN1CC[C@H](c2c(O)cc(O)c3c(=O)cc(-c4ccccc4Cl)oc23)[C@H](O)C1 [Alvocidib] | 14.5 | 16.2
24 | CC1(C)CCC(CN2CCN(c3ccc(C(=O)NS(=O)(=O)c4ccc(NCC5CCOCC5)c([N+](=O)[O-])c4)c(Oc4cnc5[nH]ccc5c4)c3)CC2)=C(c2ccc(Cl)cc2)C1 [Venetoclax] | 0 | 0
25 | CC1(COc2ccc3c(c2)ncn3-c2ccc3cccc(N4CCC(N)CC4)c3n2)COC1 [Crenolanib] | 7.5 | 6.5
26 | O=C(Nc1cccc(NC(=O)c2cccc(O)c2O)c1)c1cccc(O)c1O [MST-312] | 10 | 9.7
27 | Nc1ccn([C@@H]2O[C@H](CO)[C@@H](O)C2(F)F)c(=O)n1 [Gemcitabine] | 6.9 | 6
28 | CC/C(=C(\c1ccccc1)c1ccc(OCCN(C)C)cc1)c1ccccc1 [Tamoxifen] | 5.3 | 2.4

Row | Structure (SMILES) | drug sensitivity score [1] | drug sensitivity score [2]
29 | C=CC(=O)Nc1cc(Nc2nccc(-c3cn(C)c4ccccc34)n2)c(OC)cc1N(C)CCN(C)C [Osimertinib] | 8 | 10.4
30 | CCS(=O)(=O)Nc1ccc(Oc2ccc(F)cc2F)c(-c2cn(C)c(=O)c3[nH]ccc23)c1 [Mivebresib] | 29.9 | 31.1
31 | CC[C@@H](C(=O)[C@@H](C)[C@@H](O)[C@H](C)[C@@H]1O[C@@H]([C@@H](CC)C(=O)O)CC[C@@H]1C)[C@H]1O[C@]2(C=C[C@@H](O)[C@]3(CC[C@@](C)([C@H]4CC[C@](O)(CC)[C@H](C)O4)O3)O2)[C@H](C)C[C@@H]1C [Salinomycin] | 6.8 | 3.2
32 | C[C@@H](Oc1ccc2[nH]nc(/C=C/c3cnn(CCO)c3)c2c1)c1c(Cl)cncc1Cl | 9 | 1.8
33 | CC(C)(C)c1cc(NC(=O)Nc2ccc(Oc3ccnc4[nH]c(=O)cnc34)cc2F)n(-c2ccccc2)n1 | 7.9 | 6.7
34 | CCCc1cc(C)[nH]c(=O)c1CNC(=O)c1cc(-c2ccnc(N3CCN(C)CC3)c2)cc2c1cnn2C(C)C [GSK343] | 0 | 0
35 | C=CCc1cccc(/C=N/NC(=O)CN2CCN(Cc3ccccc3)CC2)c1O [PAC-1] | 4.4 | 4.9
36 | CN(C)C(=N)NC(=N)N [Metformin] | 0 | 0
37 | CC(C)Nc1cc(-c2c[nH]c(C(=O)N[C@H](CO)c3cccc(Cl)c3)c2)c(Cl)cn1 [Ulixertinib] | 3.5 | 0.5
38 | CS(=O)(=O)CCNCc1ccc(-c2ccc3ncnc(Nc4ccc(OCc5cccc(F)c5)c(Cl)c4)c3c2)o1 [Lapatinib] | 6.5 | 7
39 | O=C1CN2Cc3c(ccc(Cl)c3Cl)N=C2N1 [Anagrelide] | 0 | 0
40 | CC(C)c1c(C(=O)Nc2ccccc2)c(-c2ccccc2)c(-c2ccc(F)cc2)n1CC[C@@H](O)C[C@@H](O)CC(=O)O [Atorvastatin] | 0 | 0
41 | COc1cccc2c1C(=O)c1c(O)c3c(c(O)c1C2=O)C[C@@](O)(/C(CO)=N/NC(=O)CCCCCN1C(=O)C=CC1=O)C[C@@H]3O[C@H]1C[C@H](N)[C@H](O)[C@H](C)O1 [Aldoxorubicin] | 5.8 | 5.4
42 | O=c1[nH]c(=O)n([C@H]2C[C@H](O)[C@@H](CO)O2)cc1C(F)(F)F [Trifluridine] | 2.6 | 1.2
43 | CCN1CCN(c2ccc(Nc3cc(N(C)C(=O)Nc4c(Cl)c(OC)cc(OC)c4Cl)ncn3)cc2)CC1 [Infigratinib] | 0 | 0
44 | O=C(O)C(=O)O.[NH-][C@@H]1CCCC[C@H]1[NH-].[Pt+2] [Oxaliplatin] | 8.2 | 7
45 | C=CC(=O)N1CCC[C@@H](n2nc(-c3ccc(Oc4ccccc4)cc3)c3c(N)ncnc32)C1 [Ibrutinib] | 14.5 | 15.8
46 | CC(C)C[C@@H](C(=O)N[C@H](C(=O)OC1CCCC1)c1ccccc1)[C@H](O)C(=O)NO [Tosedostat] | 9.4 | 10.1
47 | CCOCc1nc2c(N)nc3ccccc3c2n1CC(C)(C)O [Resiquimod] | 0.9 | 0
48 | CC1CCC(n2c3cnccc3c3cnc(Nc4ccc5c(n4)CCN(C(=O)CO)C5)nc32)CC1 (stereo not given) [AMG-925] | 2.6 | 3.4
49 | Cc1ccc(C(=O)Nc2ccc(CN3CCN(C)CC3)c(C(F)(F)F)c2)cc1C#Cc1cnc2cccnn12 [Ponatinib] | 5.9 | 1.7
50 | Cn1c(Nc2ccc(C(F)(F)F)cc2)nc2cc(Oc3ccnc(-c4ncc(C(F)(F)F)[nH]4)c3)ccc21 [NVP-RAF265] | 1.7 | 1.1
51 | CC(C)N(CCCNC(=O)Nc1ccc(C(C)(C)C)cc1)C[C@H]1O[C@@H](n2cc(Br)c3c(N)ncnc32)[C@H](O)[C@@H]1O [SGC0946] | 0.9 | 0.1
52 | CCCOc1ccn2c(C(C)=O)cc(-c3ccccc3S(C)(=O)=O)c2c1 [GSK2801] | 0 | 0
53 | COc1cccc(OCCCN)c1-c1cc(Nc2cnc(C#N)cn2)n[nH]1 [Prexasertib] | 28 | 23.6
54 | CC(=O)c1c(C)c2cnc(Nc3ccc(N4CCNCC4)cn3)nc2n(C2CCCC2)c1=O [Palbociclib] | 2.5 | 4.8
55 | Nc1ncnc2c1c(COc1cccc(Cl)c1)nn2C1CCOCC1 | 0.9 | 0.9
